# Key:
# [1] = tested on: S180 ascites tumor of mice; assay: Inhibition of S180 tumor growth in mice; conditions: 60 mg/Kg i.p., 10 days
# Method: NIH mice used for the tests were about 18-22 grams and divided into 10 mice per group. The liquid (0.2 ml) of S180 ascites tumor of mice was inoculated subcutaneously into the armpit region of mice. The next day after the inoculation, each group of mice were injected intraperitoneally: (1) physiological saline group; (2) solvent control group (DMSO); (3) positive control group [cyclophosphamide 60 mg/(kg·d)]; (4) low-dose group 1: icariside I 2 mg/(kg·d); (5) low-dose group 2: icariside I 5 mg/(kg·d); (6) middle-dose group: icariside I 10 mg/(kg·d); (7) high-dose group: icariside I 20 mg/(kg·d). After administration for 10 continuous days, the administration was stopped and on the next day, the mice were weighed and sacrificed with tumor mass stripped and weighed. The physiological saline group and solvent group were used as a control for calculation of tumor inhibition rate.
# [2] = tested on: human peripheral blood mixed lymphocytes; assay: IFN-γ production in mixed lymphocyte culture (MLC) reaction; format: cell-based; conditions: final concentration 1000 ng/ml, 120 h
# Method: Effect of icariside I on promotion of γ-interferon (interferon-gamma, IFN-γ) production by human peripheral blood mixed lymphocytes during culture (an experimental model mimicking enhancing immunity in human body).
# (1) Preparation of human peripheral blood mononuclear cells (PBMCs): following the method in Example 5 (2), peripheral blood PBMCs from two normal human were prepared.
# Cell concentrations of freshly isolated peripheral blood mononuclear cells (PBMCs) were adjusted to […] with RPMI1640 complete medium. Then, lymphocytes from two healthy human with equal volumes were mixed to maintain a total cell concentration of […]. Different concentrations (in a gradient) of or no icariside I were added thereto (with final concentration of 100 ng/ml, 1000 ng/ml) followed by fully mixing. Then the cells after stimulation were seeded and cultured in a 96-well round-bottom culture plate. The cell concentration per well was maintained at 2×10^5/ml (200 μl/well) and was incubated at 37° C. with 5% CO2 for 120 h in an incubator. The levels of cytokine IFN-γ were detected.
# According to the method stated in Example 5 (4), the γ-interferon generated from human peripheral blood mixed lymphocyte culture (MLC) was detected.
# Equal cell concentrations of lymphocytes from healthy human were mixed cultured for five days (120 h). The pharmaceutical icariside I was added (in a gradient of different pharmaceutical concentrations) or not added. […] Among them, the human lymphocyte A control is a group of samples containing only one kind of human lymphocyte, while human lymphocyte B control is a group of samples containing two kinds of human lymphocytes, that is, a control group in which two kinds of human lymphocytes were mixed for culture without adding icariside I. The concentrations of icariside I added were 0.1 and 1 μg/ml respectively. *P<0.05; **P<0.01. […]
# Cell concentrations of freshly isolated peripheral blood mononuclear cells (PBMCs) were adjusted to 5×10^5/ml with RPMI1640 complete medium. […] The level of cytokine IFN-γ produced was then detected.
# [3] = tested on: human peripheral blood mononuclear cells (PBMCs); assay: Immunological screening model: IFN-γ produced in human PBMCs; format: cell-based
# Source text: The present inventors have long been researching the active components in traditional Chinese herbal medicine and their applications in immunotherapy. The present inventors have established an immunological test model based on determination of the level of IFN-γ produced in human peripheral blood mononuclear cells (PBMCs). By this model, compounds having promotion (or inhibition) effects on human peripheral blood mononuclear cells (PBMCs) to produce γ-interferon can be screened out from chemical components from various sources including traditional Chinese herbal medicine, medicinal plants and so on. Since the γ-Interferon is an important protein (cytokine) in human body's immune system to resist attacks from diseases, its production level in body directly relates to the body's immunity. Therefore, the model is an ideal tool to screen and find functional pharmaceuticals for improving human immunity.
# In addition, all the results and achievements of the present invention are based on the very effective screening model established by the present inventors. Therefore, a further objective of the present invention is to provide an experimental model for screening substances having impacts (either enhance or inhibit) on immunity. […] Finally, by using ELISA techniques, the levels of IFN-γ produced in the culture were measured at different incubation time. […]
smiles,measurement,setting,value
"O=P1(N(CCCl)CCCl)NCCCO1 (stereo not drawn) [cyclophosphamide, reference compound]",change of body weight (g),[1],+4.5 g
same,tumor inhibition rate (%) with physiological saline group as control,[1],42.3%
same,tumor inhibition rate (%) with solvent group as control,[1],55.2%
same,"weight of tumor (x ± SD, g)",[1],0.6 ± 0.06 g
"COc1ccc(-c2oc3c(CC=C(C)C)c(O[C@@H]4O[C@H](CO)[C@@H](O)[C@H](O)[C@H]4O)cc(O)c3c(=O)c2O[C@@H]2O[C@@H](C)[C@H](O)[C@@H](O)[C@H]2O)cc1 [icariin, reference compound]",ability to promote human γ-interferon production in mixed lymphocyte culture,[2],almost no effect
CC(C)=CCc1c(OC2OC(CO)C(O)C(O)C2O)cc(O)c2c(=O)c(O)c(-c3ccc(O)cc3)oc12 (stereo not drawn) [icariside C],effect in promoting PBMCs to generate IFN-γ,[3],significant effect
